Measured values taken from patent publication US20140161891A1, “COMPOSITION OF PI3K INHIBITOR AND USE THEREOF” (priority 2012, published 2014).

Tests used:
[1] = system: H157 (PI3KCA, PTEN null) lung cancer cell strain; test: MTT cell activity test; format: cell-based; settings: H157, higher dosage, 48 hours
Excerpt: To measure the ionized LY, PLAG nanoparticles (SF-NPs), and SF-LY NPs, PLGA NPs are applied to four selected types of lung cancer cell strains including AS2 (PTEN null), H157 (PI3KCA, PTEN null), H460 (PI3KCA) and H1650 (PTEN null) in this preferred embodiment, and different concentrations are used to process the ionized LY or SF-LY NPs and a MTT testing method is used to measure the cell activity, and the experiment procedure is described in details as follows: The cells are inoculated in 96-hole culture boards (each hole has 5×10^3 cells) and cultured by 5% of CO2 at 37[…] till the next day. In four types of different cells, different doses of SF NPs, LY or SF-LY NPs are added and processed for 48 hours, and then a stock solution (with a content of 5 mg/ml in PBS) of a MTT agent at 37° C. is added to the 96-hole culture boards containing different processing drugs and wait for 4 fours before centrifuging the culture boards at 1200 rpm for 5 minutes, and after adding DMSO (capable of dissolving and precipitating products produced by the reaction of MTT and cells) for 5 minutes, the suspension is moved to a new ELISA board, and an ELISA reader (Varioskan, Thermo Electron) is used to measure the light absorption by 490 nm.

PC14PE6/AS2 cells tumor = test: AS2 tumor model in nude mice, injection in the tumor; format: in vivo, Balb/c female nude mice; settings: 1 mg/kg, injected in the tumor three times a week for two weeks
Experimental: Balb/c female nude mice were obtained from National Laboratory Animal Center, Taiwan. Mice of 6˜8 weeks old are used. The mice are randomly divided into four groups, and situated in the same environment with controlled tempeature, humidity and 12 h-light/dark cycle, and the controlled environmental conditions follows the environmental conditions for animal breeding set forth by National Cheng Kung University. The balb/c immunodeficient mice are innoculated with PC14PE6/AS2 cells (1×10^6 cells/1004 of PBS) by the subcutaneous inoculation method. If the tumor size is approximately equal to 50-60 cubic millimeters, the experiment starts taking place. […] The tumor size is measured by a caliper and a standard tumor volume measurement method (Volume=Long Axis×Short Axis^2×0.5). […]
After the procedure as shown in FIG. 5 takes place, the body weight of the mice is measured in every two other days to check whether there is a loss of weight. […] The survival rate is determined by the number of days when a natural death of each group of mice occurs or the tumor reaches a size of 4000 mm^3.

[2] = system: four types of lung cancer cell strains (AS2, H157, H460, H1650); test: MTT cell activity test, four cell strains together; format: cell-based; settings: 48 hours
Excerpt: To measure the ionized LY, PLAG nanoparticles (SF-NPs), and SF-LY NPs, PLGA NPs are applied to four selected types of lung cancer cell strains including AS2 (PTEN null), H157 (PI3KCA, PTEN null), H460 (PI3KCA) and H1650 (PTEN null) in this preferred embodiment, and different concentrations are used to process the ionized LY or SF-LY NPs and a MTT testing method is used to measure the cell activity, and the experiment procedure is described in details as follows:
The cells are inoculated in 96-hole culture boards (each hole has 5×10^3 cells) and cultured by 5% of CO2 at 37[…] till the next day. In four types of different cells, different doses of SF NPs, LY or SF-LY NPs are added and processed for 48 hours, and then a stock solution (with a content of 5 mg/ml in PBS) of a MTT agent at 37° C. is added to the 96-hole culture boards containing different processing drugs and wait for 4 fours before centrifuging the culture boards at 1200 rpm for 5 minutes, and after adding DMSO (capable of dissolving and precipitating products produced by the reaction of MTT and cells) for 5 minutes, the suspension is moved to a new ELISA board, and an ELISA reader (Varioskan, Thermo Electron) is used to measure the light absorption by 490 nm. […]

Compound: O=c1cc(N2CCOCC2)oc2c(-c3ccccc3)cccc12 [LY294002, 2-(4-Morpholinyl)-8-phenyl-4H-1-benzopyran-4-one]
- toxicity to H157 cells [1]: slight toxicity
- growth of tumors (PC14PE6/AS2 cells tumor): insufficient to reduce the growth of tumors
- tumor size increase relative to start (PC14PE6/AS2 cells tumor; after 12˜14 days): approximately 40 times
- toxicity of the cells [2]: slight toxicity
